CO/N=C1\C[C@]2(C[C@@H]3C[C@@H](C/C=C(\C)C[C@@H](C)/C=C/C=C4\CO[C@@H]5[C@H](O)C(C)=C[C@@H](C(=O)O3)[C@]45O)O2)O[C@H](/C(C)=C/C(C)C)[C@H]1C
solubility (mole fraction)
Details | 278.15 K | 283.15 K | 288.15 K | 293.15 K | 298.15 K | 303.15 K | 308.15 K | 313.15 K | 318.15 K | 323.15 K
in ethanol | 0.0532 | 0.0674 | 0.0814 | 0.097 | 0.114 | 0.133 | 0.153 | 0.173 | 0.196 | 0.223
in ethylene glycol | 0.00364 | 0.0049 | 0.00631 | 0.00796 | 0.00975 | 0.0117 | 0.0137 | 0.0157 | 0.0181 | 0.021
in isopropanol | 0.00799 | 0.0107 | 0.0139 | 0.0178 | 0.0211 | 0.0253 | 0.0296 | 0.0346 | 0.04 | 0.0455
in methanol | 0.0243 | 0.0306 | 0.0383 | 0.0454 | 0.0545 | 0.0634 | 0.0729 | 0.0822 | 0.0927 | 0.105
in water | 3.75e-06 | 5.13e-06 | 6.71e-06 | 8.61e-06 | 1.08e-05 | 1.33e-05 | 1.59e-05 | 1.85e-05 | 2.14e-05 | 2.49e-05

— BigSolDB 2.1
